We go through 26 molecules from patent US10793563B2, “GCN2 inhibitors and uses thereof” (Merck Patent GmbH, priority 2018, dated 2020).

Usually IC50 stands for the concentration at which inhibition is half-maximal.

The target of test [1] is GCN2 kinase (Homo sapiens (Human), UniProt Q9P2K8). In words: GCN2 Enzyme Inhibition Assay (Transcreener ADP2 fluorescence polarization). Type of test: biochemical. Conditions: 280 μM ATP, 200 μM (RS)7 peptide, 4 nM GCN2, 25° C.; for Ki: Ki(app). In short, it runs like this:
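At 25 °C, GCN2 kinase (typical final concentration 4 nM) and (RS)7 peptide in Tris-HCl pH 7.5 buffer with MgCl2, NaCl and DTT were preincubated with compound for 10 min, then ATP was added for a 1 h reaction. ADP was read by FP with antibody/Alexa633 tracer. Non-linear tight-binding analysis gave IC50 and apparent Ki.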

Test [2] has as its target intracellular GCN2 (phosphorylation of the GCN2 substrate eIF2α) (Homo sapiens (Human), UniProt Q9P2K8). In words: GCN2 Cellular Inhibition Assay (AlphaScreen SureFire P-eIF2α Ser51, borrelidin-treated U2OS cells). Type of test: cell-based. Particulars: 10 μM borrelidin, 1 h, phosphorylated eIF2α Ser51, read-out: GCN2 Biomarker (IC50). In short, it runs like this:
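Phospho-eIF2α (Ser51) measured by AlphaScreen SureFire in lysates of U2OS cells stimulated 1 h at 37 °C with 10 μM borrelidin alongside compound, 4-fold dilutions from 40 μM. Inhibition expressed as percent relative to borrelidin-alone controls.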

GCN2 kinase, sequence (Q9P2K8 whole entry): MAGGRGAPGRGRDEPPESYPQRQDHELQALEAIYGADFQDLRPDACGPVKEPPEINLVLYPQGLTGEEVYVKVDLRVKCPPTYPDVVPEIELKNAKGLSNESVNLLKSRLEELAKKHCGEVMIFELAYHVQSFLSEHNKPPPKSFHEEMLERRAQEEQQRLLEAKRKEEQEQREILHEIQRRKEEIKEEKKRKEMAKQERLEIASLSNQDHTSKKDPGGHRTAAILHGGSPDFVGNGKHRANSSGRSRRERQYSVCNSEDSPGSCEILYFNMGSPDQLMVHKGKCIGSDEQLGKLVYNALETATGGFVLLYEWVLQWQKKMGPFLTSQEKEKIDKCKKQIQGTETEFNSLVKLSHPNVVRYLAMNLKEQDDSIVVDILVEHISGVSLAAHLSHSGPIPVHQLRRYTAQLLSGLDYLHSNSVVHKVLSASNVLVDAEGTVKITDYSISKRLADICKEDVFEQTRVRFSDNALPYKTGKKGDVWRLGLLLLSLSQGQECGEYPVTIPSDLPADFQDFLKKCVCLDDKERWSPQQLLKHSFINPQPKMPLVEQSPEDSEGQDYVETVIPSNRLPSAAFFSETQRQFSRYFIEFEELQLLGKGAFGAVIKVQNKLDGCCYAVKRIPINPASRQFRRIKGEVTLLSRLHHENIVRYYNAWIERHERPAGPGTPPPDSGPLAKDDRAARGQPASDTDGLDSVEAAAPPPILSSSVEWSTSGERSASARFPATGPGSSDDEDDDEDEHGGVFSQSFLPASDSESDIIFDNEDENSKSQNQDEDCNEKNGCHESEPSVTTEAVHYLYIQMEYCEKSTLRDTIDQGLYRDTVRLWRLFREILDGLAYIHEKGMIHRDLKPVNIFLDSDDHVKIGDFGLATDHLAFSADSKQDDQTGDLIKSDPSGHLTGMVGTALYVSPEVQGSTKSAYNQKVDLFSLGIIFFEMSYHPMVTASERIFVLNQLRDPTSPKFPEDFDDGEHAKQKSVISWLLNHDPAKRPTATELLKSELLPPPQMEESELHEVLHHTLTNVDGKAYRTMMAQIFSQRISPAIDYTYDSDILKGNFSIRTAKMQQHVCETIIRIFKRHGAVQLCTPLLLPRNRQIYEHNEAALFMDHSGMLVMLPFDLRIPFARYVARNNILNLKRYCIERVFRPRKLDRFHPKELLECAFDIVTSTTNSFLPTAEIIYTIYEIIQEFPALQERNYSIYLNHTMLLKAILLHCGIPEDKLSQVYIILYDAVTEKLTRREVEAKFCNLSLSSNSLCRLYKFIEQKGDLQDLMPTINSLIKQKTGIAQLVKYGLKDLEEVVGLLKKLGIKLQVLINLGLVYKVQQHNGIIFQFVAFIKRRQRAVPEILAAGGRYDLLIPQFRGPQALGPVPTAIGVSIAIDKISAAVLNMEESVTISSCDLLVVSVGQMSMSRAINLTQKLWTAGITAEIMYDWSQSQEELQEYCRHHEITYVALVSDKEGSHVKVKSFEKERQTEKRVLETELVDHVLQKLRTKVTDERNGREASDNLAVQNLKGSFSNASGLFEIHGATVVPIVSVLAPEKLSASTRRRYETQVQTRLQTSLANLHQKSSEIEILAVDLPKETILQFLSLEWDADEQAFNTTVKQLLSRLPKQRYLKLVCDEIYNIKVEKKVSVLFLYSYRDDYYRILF
intracellular GCN2 (phosphorylation of the GCN2 substrate eIF2α), sequence (Q9P2K8 whole entry): as above

Turning to `Cc1oncc1[C@H]1CN(c2ccnc(-c3cnc4ccc(C(F)(F)F)cn34)n2)C[C@H](C)O1` [I-345, (2S,6S)-2-methyl-6-(5-methylisoxazol-4-yl)-4-(2-(6-(trifluoromethyl)imidazo[1,2-a]pyridin-3-yl)pyrimidin-4-yl)morpholine], the IC50 in test [1] lay within 100 to 1000 nM; in test [2], 500 to 5000 nM.

For `Cc1nn(C)cc1[C@@H]1CN(c2nccc(-c3cnc4ccc(C(F)(F)F)cn34)n2)C[C@H](C)O1` [I-157, (2R,6S)-2-(1,3-dimethyl-1H-pyrazol-4-yl)-6-methyl-4-(4-(6-(trifluoromethyl)imidazo[1,2-a]pyridin-3-yl)pyrimidin-2-yl)morpholine], the IC50 in test [1] was 100 to 1000 nM; in test [2], < 500 nM.

Consider `FC(F)(F)c1ccc2ncc(-c3nccc(N4CCN(C[C@H]5CC56CCOCC6)[C@H](c5cn[nH]c5)C4)n3)n2c1` [I-523, 3-(4-((R)-4-(((S)-6-oxaspiro[2.5]octan-1-yl)methyl)-3-(1H-pyrazol-4-yl)piperazin-1-yl)pyrimidin-2-yl)-6-(trifluoromethyl)imidazo[1,2-a]pyridine], for which the IC50 in test [1] is 10 to 100 nM; in test [2], < 500 nM.

For `CS(=O)(=O)N1CC2(CN(c3ccnc(-c4cnc5ccc(C(F)(F)F)cn45)n3)CCO2)C1` [I-447, 2-(methylsulfonyl)-8-(2-(6-(trifluoromethyl)imidazo[1,2-a]pyridin-3-yl)pyrimidin-4-yl)-5-oxa-2,8-diazaspiro[3.5]nonane], the IC50 is 10 to 100 nM in test [1] and 500 to 5000 nM in test [2].

In the case of `COCC1(CN2CCN(c3ccnc(-c4cnc5ccc(C(F)(F)F)cn45)n3)[C@H](C)[C@@H]2c2cn[nH]c2)CCC1` (stereo in doubt) [I-511, 4-[(2R,3 S)-4-{[1-(methoxymethyl)cyclobutyl]methyl}-2-methyl-3-(1H-pyrazol-4-yl)piperazin-1-yl]-2-[6-(trifluoromethyl)imidazo[1,2-a]pyridin-3-yl]pyrimidine], the IC50 is < 10 nM in test [1] and < 500 nM in test [2].

As to `C[C@H]1C[C@H](c2cn[nH]c2)CN(c2nccc(-c3cnc4ccc(Cl)cn34)n2)C1` (stereo in doubt) [I-198, 6-chloro-3-(2-((3S,5R)-3-methyl-5-(1H-pyrazol-4-yl)piperidin-1-yl)pyrimidin-4-yl)imidazo[1,2-a]pyridine], the IC50 in test [1] is < 10 nM; in test [2], 500 to 5000 nM.

As to `CS(=O)(=O)NC[C@@H]1CN(c2nc(-c3cnc4ccc(C(F)(F)F)cn34)ns2)CCO1` [I-106, (S)—N-((4-(3-(6-(trifluoromethyl)imidazo[1,2-a]pyridin-3-yl)-1,2,4-thiadiazol-5-yl)morpholin-2-yl)methyl)methanesulfonamide], the Ki in test [1] was in the range of 10 to 100 nM. For the same molecule, the IC50 in test [2] is > 5000 nM.

For the molecule `Cc1cnc(N2C[C@@H](C)O[C@@H](c3cn[nH]c3C)C2)nc1-c1cnc2ccc(Cl)cn12` [I-204, (2R,6S)-4-(4-(6-chloroimidazo[1,2-a]pyridin-3-yl)-5-methylpyrimidin-2-yl)-2-methyl-6-(5-methyl-1H-pyrazol-4-yl)morpholine], the values for the IC50 in test [1] and in test [2] were 10 to 100 nM and 500 to 5000 nM, respectively.

On to `CS(=O)(=O)NC[C@@H]1CN(c2ccnc(-c3cnc4ccc(Cl)cn34)n2)CCO1` [I-19, N-[[(2S)-4-[2-(6-Chloroimidazo[1,2-a]pyridin-3-yl)pyrimidin-4-yl]morpholin-2-yl]methyl]methanesulfonamide], for which the Ki in test [1] lay in the range of 10 to 100 nM. Besides, the IC50 in test [2] was 500 to 5000 nM.

Regarding `C[C@H]1CN(c2ccnc(-c3cnc4ccc(C(F)F)cn34)n2)C[C@@H](CO)O1` [I-524, ((2S,6S)-4-(2-(6-(difluoromethyl)imidazo[1,2-a]pyridin-3-yl)pyrimidin-4-yl)-6-methylmorpholin-2-yl)methanol], the IC50 lay in the range of 10 to 100 nM in test [1] and 500 to 5000 nM in test [2].

`NC(=O)C1CN(c2ccnc(-c3cnc4ccc(C(F)(F)F)cn34)n2)CCN1CCC(F)(F)F` (stereo not shown) [I-245, 4-(2-(6-(trifluoromethyl)imidazo[1,2-a]pyridin-3-yl)pyrimidin-4-yl)-1-(3,3,3-trifluoropropyl)piperazine-2-carboxamide]: the IC50 in test [1] was in the range of 10 to 100 nM; in test [2] it was 500 to 5000 nM.

Regarding `Clc1ccc2ncc(-c3nccc(N4CCCC(c5c[nH]cn5)C4)n3)n2c1` (stereo not shown) [I-55, 6-Chloro-3-{4-[3-(1H-imidazol-4-yl)-piperidin-1-yl]-pyrimidin-2-yl}-imidazo[1,2-a]pyridine], in test [1], the Ki is 10 to 100 nM. In addition, in test [2], the IC50 lay in the range of 500 to 5000 nM.

For the molecule `O=C(c1cnn(C2COC2)c1)N1CCN(c2ccnc(-c3cnc4ccc(C(F)(F)F)cn34)n2)CC1c1cn[nH]c1` (stereo not shown) [I-417, (2-(1H-pyrazol-4-yl)-4-(2-(6-(trifluoromethyl)imidazo[1,2-a]pyridin-3-yl)pyrimidin-4-yl)piperazin-1-yl)(1-(oxetan-3-yl)-1H-pyrazol-4-yl)methanone], the half-inhibitory concentration (IC50) in test [1] is 100 to 1000 nM; in test [2], > 5000 nM.

Turning to `CC1(C)C[C@H]1CN1CCN(c2ccnc(-c3cnc4ccc(C(F)(F)F)cn34)n2)C[C@@H]1c1cn[nH]c1` [I-528, 3-(4-((S)-4-(((R)-2,2-dimethylcyclopropyl)methyl)-3-(1H-pyrazol-4-yl)piperazin-1-yl)pyrimidin-2-yl)-6-(trifluoromethyl)imidazo[1,2-a]pyridine], the IC50 is 10 to 100 nM in test [1] and < 500 nM in test [2].

Regarding `C[C@H]1CN(c2ccnc(-c3cnc4ccc(C(F)(F)F)cn34)n2)[C@@H](C)[C@@H](c2cn[nH]c2)N1` (stereo in doubt) [I-37, 3-[4-[2,5-Dimethyl-3-(1H-pyrazol-4-yl)piperazin-1-yl]pyrimidin-2-yl]-6-(trifluoromethyl)imidazo[1,2-a]pyridine], in test [1], the Ki was < 10 nM. The IC50 in test [2] was < 500 nM.

As to `C[C@@H]1C[C@@H](NC(=O)OC(C)(C)C)CN(c2ccnc(-c3cnc4ccc(Cl)cn34)n2)C1` [I-252, tert-butyl ((3R,5R)-1-(2-(6-chloroimidazo[1,2-a]pyridin-3-yl)pyrimidin-4-yl)-5-methylpiperidin-3-yl)carbamate], the IC50 fell in the range of 100 to 1000 nM in test [1] and 500 to 5000 nM in test [2].

For `C[C@@H](NS(C)(=O)=O)[C@@H]1[C@H](C)N(c2ccnc(-c3cnc4ccc(C(F)(F)F)cn34)n2)CCN1C1CC1` [I-506, N—((R)-1-((2 S,3 S)-1-cyclopropyl-3-methyl-4-(2-(6-(trifluoromethyl)imidazo[1,2-a]pyridin-3-yl)pyrimidin-4-yl)piperazin-2-yl)ethyl)methanesulfonamide], the IC50 is 10 to 100 nM in test [1] and 500 to 5000 nM in test [2].

On to `c1ccc(Oc2ccc3ncc(-c4nccc(N5CCC[C@@H](c6cn[nH]c6)C5)n4)n3c2)cc1` [I-399], for which the IC50 lay in the range of 10 to 100 nM in test [1] and 500 to 5000 nM in test [2].

Regarding `CC1(C)C[C@@H]1CN1CCN(c2ccnc(-c3cnc4ccc(C(F)(F)F)cn34)n2)C[C@H]1c1cn[nH]c1` [I-529, 3-(4-((R)-4-(((S)-2,2-dimethylcyclopropyl)methyl)-3-(1H-pyrazol-4-yl)piperazin-1-yl)pyrimidin-2-yl)-6-(trifluoromethyl)imidazo[1,2-a]pyridine], the values for the IC50 in test [1] and in test [2] were < 10 nM and < 500 nM, respectively.

As to `NC(=O)[C@H]1CCCN(c2nccc(-c3cnc4ccc(Cl)cn34)n2)C1` [I-183, (S)-1-(4-(6-chloroimidazo[1,2-a]pyridin-3-yl)pyrimidin-2-yl)piperidine-3-carboxamide], the IC50 in test [1] was 10 to 100 nM; in test [2] it was < 500 nM.

`CC1CN(c2nccc(-c3cnc4ccc(Cl)cn34)n2)C(C)C(c2cn[nH]c2)N1` (stereo not shown) [I-35, 6-Chloro-3-[4-[2,5-dimethyl-3-(1H-pyrazol-4-yl)piperazin-1-yl]pyrimidin-2-yl]imidazo[12-a]pyridine] registered a Ki in test [1] of 10 to 100 nM. Further, the IC50 in test [2] fell in the range of 500 to 5000 nM.

For `Cc1[nH]ncc1[C@H]1C[C@H](O)CN(c2ccnc(-c3cnc4ccc(C(F)(F)F)cn34)n2)C1` [I-307, (3 S, 5R)-5-(5-methyl-1H-pyrazol-4-yl)-1-(2-(6-(trifluoromethyl)imidazo[1,2-a]pyridin-3-yl)pyrimidin-4-yl)piperidin-3-ol], the figures for the IC50 in test [1] and in test [2] were 10 to 100 nM and 500 to 5000 nM, respectively.

`C[C@@H]1C[C@H](N=S(C)(C)=O)CN(c2ccnc(-c3cnc4ccc(OC(F)(F)F)cn34)n2)C1` [I-290, dimethyl(((3 S,5R)-5-methyl-1-(2-(6-(trifluoromethoxy)imidazo[1,2-a]pyridin-3-yl)pyrimidin-4-yl)piperidin-3-yl)imino)-λ6-sulfanone]: the IC50 in test [1] lay in the range of 10 to 100 nM; in test [2], 500 to 5000 nM.

Take `NS(=O)(=O)C1CCCN(c2ccnc(-c3cnc4ccc(C(F)(F)F)cn34)n2)C1` (stereo not shown) [I-242, 1-(2-(6-(trifluoromethyl)imidazo[1,2-a]pyridin-3-yl)pyrimidin-4-yl)piperidine-3-sulfonamide]: the IC50 is 10 to 100 nM in test [1] and > 5000 nM in test [2].

As to `C[C@H]1CN(c2nccc(-c3cnc4ccc(Cl)cn34)n2)C[C@H](c2cn[nH]c2)O1` [I-246, (2S,6S)-4-(4-(6-chloroimidazo[1,2-a]pyridin-3-yl)pyrimidin-2-yl)-2-methyl-6-(1H-pyrazol-4-yl)morpholine], the results for the IC50 in test [1] and in test [2] were 10 to 100 nM and 500 to 5000 nM, respectively.

As to `Cc1[nH]ncc1C1CC(F)CN(c2ccnc(-c3cnc4cc(F)c(Cl)cn34)n2)C1` (stereo not shown) [I-426, 6-chloro-7-fluoro-3-(4-(3-fluoro-5-(5-methyl-1H-pyrazol-4-yl)piperidin-1-yl)pyrimidin-2-yl)imidazo[1,2-a]pyridine], the values for the IC50 in test [1] and in test [2] were 10 to 100 nM and 500 to 5000 nM, respectively.
